Earlier results, collected in US20240325292A1, “COMPOSITION AND METHODS OF TREATMENT USING TRANSDERMAL SUPPLEMENTATION” (Xygenyx Inc., priority 2023, published 2024).

Assays:
[1] = as compared to α-tocopherol = 1.0
[2] = as penetration enhancer
[3] = tested on: markers of inflammation in the blood; conditions: individuals with metabolic syndrome
[4] = tested on: wide dynamic range neurons in the ventroposterolateral nucleus of the thalamus; conditions: in vivo
[5] = dietary intake in equal portions
[6] = in vivo
[7] = tested on: rheumatoid arthritis; conditions: arthritic subjects
[8] = not given; remark: listed apart in the source
[9] = 400-500 IU, in combination with 10-20 mg β-carotene and 400-500 mg vitamin C

## Cc1c(C)c2c(c(C)c1O)CC[C@@](C)(CCC[C@H](C)CCC[C@H](C)CCCC(C)C)O2 [α-tocopherol]
[9]
  progression of age-related macular degeneration: dramatically reduce the progression
  reduction in the development of age-related cataracts: 23%
800-900 IU/day
  functional health of sperm: improve functional health of sperm
1600-3200 IU/day
  blood plasma concentration of F2-isoprostane: significantly lower
Doses up to 400 IU/day
  reduction of risk of coronary disease: up to 34%
Doses up to 400 IU/day, controlled trials
  reduction of risk of developing neurodegenerative diseases (Alzheimer's Syndrome or dementia): ≤ 24%
[1]
  relative biological activity: 1.0

## Cc1cc(O)c(C)c2c1O[C@](C)(CCC[C@H](C)CCC[C@H](C)CCCC(C)C)CC2 [β-tocopherol]
[1]
  relative biological activity: 0.5

## CC12CCC(CC1)C(C)(C)O2 [eucalyptol, 1,8-epoxy-p-menthane]
[2]
  increase of transdermal drug uptake, factor: more than 10

## CC(C)[C@@H]1CC[C@@H](C)C[C@H]1O [Menthol]
[2]
  increase of transdermal drug uptake, factor: ≥ 10

## Cc1cc(O)cc2c1O[C@](C)(CCC[C@H](C)CCC[C@H](C)CCCC(C)C)CC2 [δ-tocopherol]
[1]
  relative biological activity: 0.03
[3]
  markers of inflammation in the blood: reduced markers of inflammation

## CCCCCc1cc(O)c2c(c1)OC(C)(C)C1CCC(C)=CC21 (stereo not drawn) [THC, Δ-9-tetrahydrocannabinol]
[4]
  potency in mediating pain relative to morphine: ten times more powerful than morphine

## Cc1c(O)cc2c(c1C)O[C@](C)(CCC[C@H](C)CCC[C@H](C)CCCC(C)C)CC2 [γ-tocopherol]
[1]
  relative biological activity: 0.1
[5]
  concentration in vivo relative to α-tocopherol: roughly 10%

## HGH: hormone comprising a peptide chain that is synthesized in the pituitary gland
[6]
  biological half-life: 10-20 minutes

## C=C1CC/C=C(\C)CC[C@@H]2[C@@H]1CC2(C)C [β-caryophyllene]
[7]
  joint and lymph node swelling, leukocyte number: reduced swelling of joints and lymph nodes as well as the number of circulating and articular leukocytes

## C/C(=C\CO)CCC[C@H](C)CCC[C@H](C)CCCC(C)C [phytol, Phytol]
[8]
  solubility in water: nearly insoluble in water
